Drawing on US12077503B2, “Substituted cyclic amides and their use as herbicides” (FMC CORPORATION, priority 2015, dated 2024), this text covers pest or weed control for 2 compounds.

The structures appear in SMILES notation.

Assay type in all cases: in vivo
The subject of assay [1] is Kochia (Kochia scoparia). As to the kind of experiment: Test A preemergence. The conditions noted are these: Bassia scoparia, pre-emergence, 240 h, 0 to 100 scale (0 no effect, 100 complete control), read-out: Plant response rating, Kochia; for pest or weed control at 500 g/ha: 500 g ai/ha, preemergence. The method, boiled down: (§1)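 Visual injury, scored on a 0–100 scale relative to untreated controls, was recorded about 10 d after application. Treatments were a preemergence soil spray over planted seeds or a postemergence spray on plants at the one- to two-leaf stage, 2 to 10 cm tall, all in loam soil–sand blend in the greenhouse.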

The subject of assay [2] is barnyardgrass (Echinochloa crus-galli). As to the kind of experiment: Test A preemergence. The note with it: Echinochloa crus-galli, pre-emergence, 240 h, 0 to 100 scale (0 no effect, 100 complete control), read-out: Plant response rating, Barnyardgrass; for pest or weed control at 500 g/ha: 500 g ai/ha, preemergence; for pest or weed control at 125 g/ha: Preemergence, 125 g ai/ha. The gist of the method: as §1

In assay [3] the test system is giant foxtail (Setaria faberii). The assay is described as follows: Test A preemergence. The conditions noted are these: Setaria faberi, pre-emergence, 240 h, 0 to 100 scale (0 no effect, 100 complete control), read-out: Plant response rating, Foxtail, Giant; for pest or weed control at 500 g/ha: 500 g ai/ha, preemergence; for pest or weed control at 125 g/ha: Preemergence, 125 g ai/ha. The method, boiled down:
as §1

The subject of assay [4] is pigweed (Amaranthus retroflexus). The assay is described as follows: Test A preemergence. The note with it: Amaranthus retroflexus, pre-emergence, 240 h, 0 to 100 scale (0 no effect, 100 complete control), read-out: Plant response rating, Pigweed; for pest or weed control at 500 g/ha: 500 g ai/ha, preemergence; for pest or weed control at 125 g/ha: Preemergence, 125 g ai/ha.

Assay [5] relates to ragweed (common ragweed, Ambrosia elatior). The assay is described as follows: Test A preemergence. The note with it: Ambrosia artemisiifolia, pre-emergence, 240 h, 0 to 100 scale (0 no effect, 100 complete control), read-out: Plant response rating, Ragweed; for pest or weed control at 500 g/ha: 500 g ai/ha, preemergence; for pest or weed control at 125 g/ha: Preemergence, 125 g ai/ha. The gist of the method:
as §1

Assay [6] has as its system ryegrass, Italian (Italian ryegrass, Lolium multiflorum). The assay is described as follows: Test A preemergence. The note with it: Lolium multiflorum, pre-emergence, 240 h, 0 to 100 scale (0 no effect, 100 complete control), read-out: Plant response rating, Ryegrass, Italian; for pest or weed control at 500 g/ha: 500 g ai/ha, preemergence; for pest or weed control at 125 g/ha: Preemergence, 125 g ai/ha. The method, boiled down: as §1

The subject of assay [7] is barnyardgrass (Echinochloa crus-galli). The assay is described as follows: Test A postemergence. The note with it: Echinochloa crus-galli, post-emergence, 240 h, Postemergence. The method, boiled down:
as §1

For assay [8], the system named is giant foxtail (Setaria faberii). The assay is described as follows: Test A postemergence. The conditions noted are these: Setaria faberi, post-emergence, 240 h, Postemergence; for pest or weed control at 125 g/ha: 125 g ai/ha, visual rating about 10 d after treatment, read-out: Foxtail, Giant plant response rating (0 to 100 scale); for pest or weed control at 500 g/ha: 500 g ai/ha, visual injury, 0 to 100 scale (0 no effect, 100 complete control), approx. 10 d, read-out: Plant response rating, Foxtail, Giant. The gist of the method: as §1

For assay [9], the system named is pigweed (Amaranthus retroflexus). The assay is described as follows: Test A postemergence. The conditions noted are these: Amaranthus retroflexus, post-emergence, 240 h, Postemergence; for pest or weed control at 125 g/ha: 125 g ai/ha, visual rating about 10 d after treatment, read-out: Pigweed plant response rating (0 to 100 scale); for pest or weed control at 500 g/ha: 500 g ai/ha, visual injury, 0 to 100 scale (0 no effect, 100 complete control), approx. 10 d, read-out: Plant response rating, Pigweed. The method, boiled down:
as §1

Assay [10] concerns ryegrass, Italian (Italian ryegrass, Lolium multiflorum). As to the kind of experiment: Test A postemergence. The note with it: Lolium multiflorum, post-emergence, 240 h, Postemergence; for pest or weed control at 125 g/ha: 125 g ai/ha, visual rating about 10 d after treatment, read-out: Ryegrass, Italian plant response rating (0 to 100 scale); for pest or weed control at 500 g/ha: 500 g ai/ha, visual injury, 0 to 100 scale (0 no effect, 100 complete control), approx. 10 d, read-out: Plant response rating, Ryegrass, Italian. The gist of the method: as §1

Assay [11] concerns barnyardgrass (Echinochloa crus-galli). The assay is described as follows: Test B flooded paddy test. The note with it: Echinochloa crus-galli, 360 h, Flood, 250 g ai/ha; visually evaluated after 13 to 15 d; read-out: Plant response rating, Barnyardgrass (0 to 100 scale where 0 is no effect and 100 is complete control). The gist of the method: (§2)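 Rating scale 0–100 (visual, vs untreated controls) after a 13–15 d greenhouse period; application to the flood layer, 3 cm above soil and maintained; plants at 2-leaf stage when treated.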

The test system of assay [12] is ducksalad (Heteranthera limosa). The assay is described as follows: Test B flooded paddy test. The note with it: Heteranthera limosa, 360 h, Flood, 250 g ai/ha; visually evaluated after 13 to 15 d; read-out: Plant response rating, Ducksalad (0 to 100 scale where 0 is no effect and 100 is complete control). The method, boiled down: as §2
The subject of assay [13] is rice (Oryra sativa). The assay is described as follows: Test B flooded paddy test. The conditions noted are these: Oryza sativa, 360 h, Flood, 250 g ai/ha; visually evaluated after 13 to 15 d; read-out: Plant response rating, Rice (0 to 100 scale where 0 is no effect and 100 is complete control). The gist of the method: as §2
Assay [14] concerns sedge, umbrella (small-flower umbrella sedge, Cyperus difformis). The assay is described as follows: Test B flooded paddy test. The conditions noted are these: Cyperus difformis, 360 h, Flood, 250 g ai/ha; visually evaluated after 13 to 15 d; read-out: Plant response rating, Sedge, Umbrella (0 to 100 scale where 0 is no effect and 100 is complete control). The gist of the method: as §2

As to `Cc1ccc([C@H]2CN(C)C(=O)[C@@H]2C(=O)Nc2ccc(F)c(F)c2F)cc1` [Compound 1378], the pest or weed control at 500 g/ha stood at 90% in assay [1]; 90% in assay [2]; 90% in [3]; 70% in assay [4]; 90% in assay [5]; 90% in assay [6]. The pest or weed control at 500 g/ha in [7] (500 g ai/ha, visual injury, 0 to 100 scale (0 no effect, 100 complete control), approx. 10 d, read-out: Plant response rating, Barnyardgrass) came to 80%; in [8], 90%; in assay [9], 70%; in assay [10], 60%. Besides, the pest or weed control at 125 g/ha was found to be 80% in assay [1] (Preemergence, 125 g ai/ha); 90% in [2]; 90% in assay [3]; 70% in [4]; 50% in assay [5]; 80% in [6]. For the same compound, the pest or weed control at 125 g/ha in assay [7] (125 g ai/ha, visual rating about 10 d after treatment, read-out: Barnyardgrass plant response rating (0 to 100 scale, 0 no effect, 100 complete control)) was found to be 80%; in [8] it was 80%; in assay [9] it was 30%; in [10], 40%. For the same compound, the pest or weed control at 250 g/ha was 85% in [11], 95% in [12], 45% in assay [13] and 0% in assay [14].

For `COc1cc(OC)cc([C@H]2CN(C)C(=O)[C@@H]2C(=O)Nc2cccc(F)c2F)c1` [Compound 1370], the pest or weed control at 500 g/ha in assay [1] was determined as 80%; in assay [2] it was 90%; in assay [3], 90%; in assay [4] it was 20%; in assay [5], 80%; in assay [6] it was 90%. In addition, the pest or weed control at 500 g/ha in assay [8] worked out at 90%; in assay [9] it was 30%; in assay [10] it was 70%. Besides, the pest or weed control at 125 g/ha was found to be 90% in [2]; 90% in [3]; 0% in assay [4]; 40% in assay [5]; 80% in assay [6]; 90% in assay [8]. Moreover, the pest or weed control at 125 g/ha in assay [9] is 0%; in [10], 40%. Also, the pest or weed control at 250 g/ha is 60% in assay [11], 70% in assay [12], 20% in assay [13] and 0% in [14].
